Data taken from patent US20070128217A1 (priority 2003, published 2007).

Key:
[1] = system: antibodies in sera from SARS patients (sera 1a, 1b, 2, 6, 37, 62, London, SARS-yellow, SARS-green); format: binding, human; set-up: Binding of serum 6 to linear peptides of protein X1 of SARS-CoV Urbani / Binding of serum 37 to linear peptides of protein X1 of SARS-CoV Urbani / Binding of serum 6 to looped/cyclic peptide (PEPSCAN-ELISA) / Binding of serum 37 to looped/cyclic peptide (PEPSCAN-ELISA) / Binding of serum 37 to looped/cyclic peptides of protein X1 of SARS-CoV Urbani / Binding of serum 6 to linear peptides of protein X2 / Binding of serum 37 to linear peptides of protein X2 / Binding of serum 37 to looped/cyclic peptides of protein X2 of SARS-CoV Urbani / Binding of serum 6 to linear peptides of protein M of SARS-CoV Urbani / Binding of serum 37 to linear peptides of protein M of SARS-CoV Urbani / Binding of serum 6 to looped/cyclic peptides of protein M of SARS-CoV Urbani / Binding of serum 37 to looped/cyclic peptides of protein M of SARS-CoV Urbani / Binding of serum 6 to linear peptides of protein X3 of SARS-CoV Urbani / Binding of serum 37 to linear peptides of protein X3 of SARS-CoV Urbani / Binding of serum 37 to looped/cyclic peptides of protein X3 of SARS-CoV Urbani / Binding of serum 6 to linear peptides of protein X4 of SARS-CoV Urbani / Binding of serum 37 to linear peptides of protein X4 of SARS-CoV Urbani / Binding of serum 37 to looped/cyclic peptides of protein X4 of SARS-CoV Urbani / Binding of serum 6 to linear peptides of protein X5 of SARS-CoV Urbani / Binding of serum 37 to linear peptides of protein X5 of SARS-CoV Urbani / Binding of serum 37 to looped/cyclic peptides of protein X5 of SARS-CoV Urbani / Binding of serum 6 to linear peptides of protein N of SARS-CoV Urbani / Binding of serum 37 to linear peptides of protein N of SARS-CoV Urbani / Binding of serum 6 to linear peptide (PEPSCAN-ELISA) / Binding of serum 1a to looped/cyclic peptides of protein N of SARS-CoV Urbani / Binding of serum 1b to looped/cyclic peptides of protein N of SARS-CoV Urbani / Binding of serum 2 to looped/cyclic peptides of protein N of SARS-CoV Urbani / Binding of serum 6 to looped/cyclic peptides of protein N of SARS-CoV Urbani / Binding of serum 37 to looped/cyclic peptides of protein N of SARS-CoV Urbani / Binding of serum 62 to looped/cyclic peptides of protein N of SARS-CoV Urbani / Binding of serum London to looped/cyclic peptides of protein N of SARS-CoV Urbani / Binding of serum SARS-green to looped/cyclic peptides of protein N of SARS-CoV Urbani: unit not given here
[2] = system: control sera (pooled serum of ten healthy LUMC hospital workers; commercial negative donor pooled serum from the Dutch bloodbank); format: binding, human; set-up: Binding of Control serum LUMC to linear peptides / Binding of Control serum Blood-bank to linear peptides / Binding of Control serum LUMC to looped peptides / Binding of Control Serum Blood-Bank to Looped peptides / Binding of Control serum LUMC to linear peptides of the protein M of SARS-CoV Urbani / Binding of Control serum Blood-bank to linear peptides of the protein M of SARS-CoV Urbani / Binding of Control serum LUMC to looped peptides of the protein M of SARS-CoV Urbani / Binding of Control Serum Blood-Bank to Looped peptides of the protein M of SARS-CoV Urbani: unit not given here
[3] = system: rabbit serum obtained by immunizing a rabbit with the SARS-CoV strain Frankfurt 1; format: binding; set-up: Binding of a rabbit serum to linear peptides / Binding of a rabbit serum to looped peptides / Rabbit serum linear peptides / Rabbit serum looped peptides / Binding of a rabbit serum to linear peptides of protein N of SARS-CoV Urbani (Rabbit serum linear peptides) / Binding of a rabbit serum to looped/cyclic peptides of protein N of SARS-CoV Urbani (Rabbit serum looped peptides): unit not given here

PKFTTSLSLHKLLQT
Binding of serum 1a to linear peptides of protein X2 [1]: 0.6
Binding of serum 1a to looped/cyclic peptides of protein X2 of SARS-CoV Urbani [1]: 0.5
Binding of serum 1b to linear peptides of protein X2 [1]: 0.4
Binding of serum 1b to looped/cyclic peptides of protein X2 of SARS-CoV Urbani [1]: 0.4
Binding of serum 2 to linear peptides of protein X2 [1]: 0.5
Binding of serum 2 to looped/cyclic peptides of protein X2 of SARS-CoV Urbani [1]: 0.3
Binding of serum 6 to linear peptides of protein X2 [1]: 0.3
Binding of serum 6 to looped/cyclic peptides of protein X2 of SARS-CoV Urbani [1]: 0.3
Binding of serum 37 to linear peptides of protein X2 [1]: 0.5
Binding of serum 37 to looped/cyclic peptides of protein X2 of SARS-CoV Urbani [1]: 0.4
Binding of serum 62 to linear peptides of protein X2 [1]: 0.6
Binding of serum 62 to looped/cyclic peptides of protein X2 of SARS-CoV Urbani [1]: 0.6
Binding of serum London to linear peptides of protein X2 [1]: 0.4
Binding of serum London to looped/cyclic peptides of protein X2 of SARS-CoV Urbani [1]: 0.3
Binding of serum SARS-green to linear peptides of protein X2 [1]: 0.5
Binding of serum SARS-green to looped/cyclic peptides of protein X2 of SARS-CoV Urbani [1]: 0.3
Binding of serum SARS-yellow to linear peptides of protein X2 [1]: 0.3
Binding of serum SARS-yellow to looped/cyclic peptides of protein X2 of SARS-CoV Urbani [1]: 0.3
Binding of Control Serum Blood-Bank to Looped peptides [2]: 0.7
Binding of Control serum Blood-bank to linear peptides [2]: 0.7
Binding of Control serum LUMC to linear peptides [2]: 0.4
Binding of Control serum LUMC to looped peptides [2]: 0.4
Binding of a rabbit serum to linear peptides [3]: 0.2
Binding of a rabbit serum to looped peptides [3]: 0.4

PLFLIVAALVFLILC
Binding of serum 1a to linear peptides of protein X4 of SARS-CoV Urbani [1]: 0.5
Binding of serum 1a to looped/cyclic peptides of protein X4 of SARS-CoV Urbani [1]: 0.5
Binding of serum 1b to linear peptides of protein X4 of SARS-CoV Urbani [1]: 0.4
Binding of serum 1b to looped/cyclic peptides of protein X4 of SARS-CoV Urbani [1]: 0.1
Binding of serum 2 to linear peptides of protein X4 of SARS-CoV Urbani [1]: 0.3
Binding of serum 2 to looped/cyclic peptides of protein X4 of SARS-CoV Urbani [1]: 0.2
Binding of serum 6 to linear peptides of protein X4 of SARS-CoV Urbani [1]: 0.3
Binding of serum 6 to looped/cyclic peptides of protein X4 of SARS-CoV Urbani [1]: 0.5
Binding of serum 37 to linear peptides of protein X4 of SARS-CoV Urbani [1]: 0.6
Binding of serum 37 to looped/cyclic peptides of protein X4 of SARS-CoV Urbani [1]: 0.0
Binding of serum 62 to linear peptides of protein X4 of SARS-CoV Urbani [1]: 0.7
Binding of serum 62 to looped/cyclic peptides of protein X4 of SARS-CoV Urbani [1]: 0.1
Binding of serum London to linear peptides of protein X4 of SARS-CoV Urbani [1]: 0.6
Binding of serum London to looped/cyclic peptides of protein X4 of SARS-CoV Urbani [1]: 0.1
Binding of serum SARS-green to linear peptides of protein X4 of SARS-CoV Urbani [1]: 0.5
Binding of serum SARS-green to looped/cyclic peptides of protein X4 of SARS-CoV Urbani [1]: 0.2
Binding of serum SARS-yellow to linear peptides of protein X4 of SARS-CoV Urbani [1]: 0.4
Binding of serum SARS-yellow to looped/cyclic peptides of protein X4 of SARS-CoV Urbani [1]: 0.1
Binding of Control Serum Blood-Bank to Looped peptides [2]: 0.5
Binding of Control serum Blood-bank to linear peptides [2]: 0.4
Binding of Control serum LUMC to linear peptides [2]: 0.4
Binding of Control serum LUMC to looped peptides [2]: 0.5
Rabbit serum linear peptides [3]: 0.4
Rabbit serum looped peptides [3]: 0.0

PLMESELVIGAVIIR
Binding of serum 1a to linear peptides of protein M of SARS-CoV Urbani [1]: 0.7
Binding of serum 1a to looped/cyclic peptides of protein M of SARS-CoV Urbani [1]: 0.7
Binding of serum 1b to linear peptides of protein M of SARS-CoV Urbani [1]: 0.6
Binding of serum 1b to looped/cyclic peptides of protein M of SARS-CoV Urbani [1]: 0.6
Binding of serum 2 to linear peptides of protein M of SARS-CoV Urbani [1]: 0.7
Binding of serum 2 to looped/cyclic peptides of protein M of SARS-CoV Urbani [1]: 0.7
Binding of serum 6 to linear peptides of protein M of SARS-CoV Urbani [1]: 0.4
Binding of serum 6 to looped/cyclic peptides of protein M of SARS-CoV Urbani [1]: 0.8
Binding of serum 37 to linear peptides of protein M of SARS-CoV Urbani [1]: 0.7
Binding of serum 37 to looped/cyclic peptides of protein M of SARS-CoV Urbani [1]: 0.8
Binding of serum 62 to linear peptides of protein M of SARS-CoV Urbani [1]: 0.5
Binding of serum 62 to looped/cyclic peptides of protein M of SARS-CoV Urbani [1]: 0.8
Binding of serum London to linear peptides of protein M of SARS-CoV Urbani [1]: 0.3
Binding of serum London to looped/cyclic peptides of protein M of SARS-CoV Urbani [1]: 0.2
Binding of serum SARS-green to linear peptides of protein M of SARS-CoV Urbani [1]: 0.5
Binding of serum SARS-green to looped/cyclic peptides of protein M of SARS-CoV Urbani [1]: 0.3
Binding of serum SARS-yellow to linear peptides of protein M of SARS-CoV Urbani [1]: 0.2
Binding of serum SARS-yellow to looped/cyclic peptides of protein M of SARS-CoV Urbani [1]: 0.7
Binding of Control Serum Blood-Bank to Looped peptides of the protein M of SARS-CoV Urbani [2]: 0.9
Binding of Control serum Blood-bank to linear peptides of the protein M of SARS-CoV Urbani [2]: 1.0
Binding of Control serum LUMC to linear peptides of the protein M of SARS-CoV Urbani [2]: 0.8
Binding of Control serum LUMC to looped peptides of the protein M of SARS-CoV Urbani [2]: 0.8
Rabbit serum linear peptides [3]: 0.2
Rabbit serum looped peptides [3]: 0.1
